Test results published in patent US10774068B2, “Composition and methods for inhibiting mammalian sterile 20-like kinase 1” (The Scripps Research Institute, priority 2015, dated 2020).
Where two headings read alike, the source gives them in different places.

Assays:
[1] = biological target: MST2 (Homo sapiens (Human), UniProt Q13188); assay: MST2 biochemical LanthaScreen Eu Kinase Binding Assay
Description: (§1) MST1 and MST2 biochemical LanthaScreen Eu Kinase Binding Assay was based on the binding and displacement of kinase tracer to the kinase of interest. Compounds in 1000×DMSO stock solution was dispensed using automated dispensing system (Labcyte) to 384 well Corning Microplate at 15 nL, 5 uL of Kinase buffer A was added to each well. Plates were shaken and incubated for 1 min to ensure well dissolution of compounds.

[2] = biological target: MST1 (Homo sapiens (Human), UniProt Q13043); assay: MST1 biochemical LanthaScreen Eu Kinase Binding Assay; settings: read-out: Kinase Binding assay-MST1 IC50
Sequence of MST1 (Q13043 whole entry): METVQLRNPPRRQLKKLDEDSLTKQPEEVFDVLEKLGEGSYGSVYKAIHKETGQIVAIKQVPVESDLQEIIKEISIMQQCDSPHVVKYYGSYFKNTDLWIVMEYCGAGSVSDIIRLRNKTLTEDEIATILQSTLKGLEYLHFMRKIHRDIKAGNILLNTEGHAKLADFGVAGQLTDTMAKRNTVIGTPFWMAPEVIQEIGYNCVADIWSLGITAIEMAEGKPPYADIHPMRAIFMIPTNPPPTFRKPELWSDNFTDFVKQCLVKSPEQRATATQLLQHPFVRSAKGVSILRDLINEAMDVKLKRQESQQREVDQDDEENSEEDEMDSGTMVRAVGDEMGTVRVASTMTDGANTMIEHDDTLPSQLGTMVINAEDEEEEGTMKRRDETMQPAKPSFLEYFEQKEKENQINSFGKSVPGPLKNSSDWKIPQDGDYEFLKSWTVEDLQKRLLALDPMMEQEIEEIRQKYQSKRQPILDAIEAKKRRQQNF
Description: as §1

[3] = read-out: Kinase Binding assay-MST2 IC50

Sequence of MST2 (Q13188 whole entry): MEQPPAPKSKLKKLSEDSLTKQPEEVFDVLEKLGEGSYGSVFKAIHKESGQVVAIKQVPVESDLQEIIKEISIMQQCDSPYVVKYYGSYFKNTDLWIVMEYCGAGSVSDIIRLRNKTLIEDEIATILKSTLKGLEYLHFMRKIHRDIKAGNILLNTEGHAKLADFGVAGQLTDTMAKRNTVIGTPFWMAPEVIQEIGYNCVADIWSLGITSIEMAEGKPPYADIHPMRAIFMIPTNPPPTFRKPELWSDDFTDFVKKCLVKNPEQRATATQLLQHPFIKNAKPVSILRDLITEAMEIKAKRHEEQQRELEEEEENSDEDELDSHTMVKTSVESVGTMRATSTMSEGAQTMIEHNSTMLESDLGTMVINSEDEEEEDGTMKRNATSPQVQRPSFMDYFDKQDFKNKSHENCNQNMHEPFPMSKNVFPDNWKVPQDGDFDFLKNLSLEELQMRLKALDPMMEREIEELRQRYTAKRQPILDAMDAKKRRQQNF

| IC50 [1, 3] | IC50 [2] | SMILES | IC50 [1] |
| --- | --- | --- | --- |
|  | 1000 to 10000 nM | CCOc1cc2ncc(C#N)c(Nc3cccc(Cl)c3)c2cc1NC(=O)CCCN(C)C [Example 137, N-(4-(3-chlorophenylamino)-3-cyano-7-ethoxyquinolin-6-yl)-4-(dimethylamino)butanamide] |  |
|  | < 100 nM | CCOc1cc2ncc(C#N)c(Nc3ccc(OCc4ccccn4)c(Cl)c3)c2cc1NC(=O)CCN(C)C [Example 96] |  |
| < 100 nM | < 100 nM | CCOc1cc2ncc(C#N)c(Nc3cccc(Cl)c3)c2cc1NC(C)=O [Example 127] |  |
|  | 100 to 1000 nM | CCOc1cc2ncc(C#N)c(Nc3ccc(OC)cc3)c2cc1NC(C)=O [Example 121] |  |
|  | 1000 to 10000 nM | CCOc1cc2ncc(C#N)c(Nc3cccc(C)c3)c2cc1NC(C)=O [Example 130] |  |
|  | 100 to 1000 nM | CCOc1cc2ncc(C#N)c(Nc3cccc(OC)c3)c2cc1NC(C)=O [Example 131] |  |
|  | 1000 to 10000 nM | CCOc1cc2ncc(C#N)c(Nc3ccc(NC(C)(C)c4ccccn4)c(Cl)c3)c2cc1NC(=O)CCCN(C)C [Example 113] |  |
|  | < 100 nM | CCOc1cc2ncc(C#N)c(Nc3ccc(OCc4ccccn4)c(Cl)c3)c2cc1NC(=O)CCCN1CCN(C)CC1 [Example 98] |  |
|  | 100 to 1000 nM | CCOc1cc2ncc(C#N)c(Nc3ccc(OCc4nc(C(C)C)no4)c(Cl)c3)c2cc1NC(=O)CCCN(C)C [Example 70] |  |
|  | 1000 to 10000 nM | CCOc1cc2ncc(C#N)c(Nc3ccccc3)c2cc1NC(C)=O [Example 115, N-(3-cyano-7-ethoxy-4-(phenylamino)quinolin-6-yl)acetamide] |  |
|  | 100 to 1000 nM | CCOc1cc2ncc(C#N)c(Nc3ccc(OCc4cc(-c5ccc(C)cc5)on4)c(Cl)c3)c2cc1NC(=O)CCCN(C)C [Example 73] |  |
|  | 100 to 1000 nM | CCOc1cc2ncc(C#N)c(Nc3ccc(OCc4ncccc4-c4ccccc4)c(Cl)c3)c2cc1NC(=O)CCCN(C)C [Example 72] |  |
|  | 100 to 1000 nM | CCOc1cc2ncc(C#N)c(Nc3ccc(NC(=O)c4ccccc4)c(Cl)c3)c2cc1NC(=O)CCCN(C)C [Example 109, N-(2-chloro-4-(3-cyano-6-(4-(dimethylamino)butanamido)-7-ethoxyquinolin-4-ylamino)phenyl)benzamide] |  |
|  | 100 to 1000 nM | CCOc1cc2ncc(C#N)c(Nc3ccccc3F)c2cc1NC(C)=O [Example 118] |  |
|  | 100 to 1000 nM | CCOc1cc2ncc(C#N)c(Nc3ccc(OC)c(Cl)c3)c2cc1NC(C)=O [Example 136] |  |
|  | 100 to 1000 nM | CCOc1cc2ncc(C#N)c(Nc3ccc(NCc4ccccn4)c(Cl)c3)c2cc1NC(=O)CCCN(C)C [Example 111, N-(4-(3-chloro-4-(pyridin-2-ylmethylamino)phenylamino)-3-cyano-7-ethoxyquinolin-6-yl)-4-(dimethylamino)butanamide] |  |
|  | 1000 to 10000 nM | CCOc1cc2ncc(C#N)c(Nc3ccc(NC(C)c4ccccn4)c(Cl)c3)c2cc1NC(=O)CCCN(C)C (stereo not shown) [Example 112] |  |
|  | 100 to 1000 nM | CCOc1cc2ncc(C#N)c(Nc3ccc(OCc4cc5ncccc5o4)c(Cl)c3)c2cc1NC(=O)CCCN(C)C [Example 71] |  |
|  | 100 to 1000 nM | CCOc1cc2ncc(C#N)c(Nc3ccc(C)cc3)c2cc1NC(C)=O [Example 120] |  |
|  | 1000 to 10000 nM | CCOc1cc2ncnc(Nc3ccc(OCc4ncccc4C)cc3Cl)c2cc1NC(=O)CCCN(C)C [Example 146, N-(4-(2-chloro-4-((3-methylpyridin-2-yl)methoxy)phenylamino)-7-ethoxyquinazolin-6-yl)-4-(dimethylamino)butanamide] |  |
|  | 1000 to 10000 nM | CCOc1cc2ncc(C#N)c(Nc3cccc(S(C)(=O)=O)c3)c2cc1NC(C)=O [Example 134] |  |
|  | 1000 to 10000 nM | CCOc1cc2ncc(C#N)c(Nc3ccc(NC(C)c4ccccc4)c(Cl)c3)c2cc1NC(=O)CCCN(C)C (stereo not shown) [Example 114] |  |
|  | 1000 to 10000 nM | CCOc1cc2ncc(C#N)c(Nc3ccc(C#N)cc3)c2cc1NC(C)=O [Example 129] |  |
|  | 1000 to 10000 nM | CCOc1cc2ncc(C#N)c(Nc3ccc(OCc4ccccn4)c(Cl)c3)c2cc1NC(=O)CC [Example 101] |  |
|  | 1000 to 10000 nM | CCOc1cc2ncc(C#N)c(Nc3ccc(OC)c(Cl)c3)c2cc1NC(=O)CCCN(C)C [Example 138] |  |
|  | 1000 to 10000 nM | CCOc1cc2ncc(C#N)c(N(C)c3ccccc3)c2cc1NC(C)=O [Example 116] |  |
|  | 1000 to 10000 nM | CCOc1cc2ncc(C#N)c(Nc3ccc(Cl)cc3)c2cc1NC(C)=O [Example 122] |  |

The remaining lines, values behind:

| SMILES | IC50 [1, 3] | IC50 [2] | IC50 [1] |
| --- | --- | --- | --- |
| CCOc1cc2ncc(C#N)c(Nc3ccc(OCc4ncccc4C)c(OC)c3)c2cc1NC(=O)CCCN(C)C [Example 28] | < 100 nM | < 100 nM |  |
| CCOc1cc2ncc(C#N)c(Nc3ccc(OCc4ccccc4)c(Cl)c3)c2cc1NC(=O)CCCN(C)C [Example 46] |  | 100 to 1000 nM |  |
| CCOc1cc2ncc(C#N)c(Nc3ccc(OCc4cccnc4)c(Cl)c3)c2cc1NC(=O)CCCN(C)C [Example 49] |  | 1000 to 10000 nM |  |
| CCOc1cc2ncc(C#N)c(Nc3ccc(OCc4ncccc4C4CC4)c(Cl)c3)c2cc1NC(=O)CCCN(C)C [Example 44] |  | 100 to 1000 nM | 100 to 1000 nM |
| CCOc1cc2ncc(C#N)c(Nc3ccc(OCc4ncccc4F)c(Cl)c3)c2cc1NC(=O)CCCN(C)C [Example 16] | < 100 nM | < 100 nM |  |
| Cc1cccnc1COc1ccc(Nc2ccnc3ccc(NC(=O)CCCN(C)C)cc23)c(Cl)c1 [Example 147, N-(4-(2-chloro-4-((3-methylpyridin-2-yl)methoxy)phenylamino)quinolin-6-yl)-4-(dimethylamino)butanamide] |  | 1000 to 10000 nM | 1000 to 10000 nM |
| CCOc1cc2ncc(C#N)c(Nc3ccc(OCc4ncccc4Cl)c(Cl)c3)c2cc1NC(=O)CCCN(C)C [Example 35] | < 100 nM | < 100 nM |  |
| CCOc1cc2ncc(C#N)c(Nc3ccc(OCc4cocn4)c(Cl)c3)c2cc1NC(=O)CCCN(C)C [Example 69] |  | 100 to 1000 nM |  |
| CCOc1cc2ncc(C#N)c(Nc3ccc(OCc4cc(Cl)ccn4)c(Cl)c3)c2cc1NC(=O)CCCN(C)C [Example 2] | < 100 nM | < 100 nM |  |
| CCOc1cc2ncc(C#N)c(Nc3ccc(OCc4cccc(F)n4)c(Cl)c3)c2cc1NC(=O)CCCN(C)C [Example 4] | < 100 nM | < 100 nM |  |
| CCOc1cc2ncc(C#N)c(Nc3ccc(OCc4ccn(C)n4)c(Cl)c3)c2cc1NC(=O)CCCN(C)C [Example 67] |  | 100 to 1000 nM | 100 to 1000 nM |
| CCOc1cc2ncc(C#N)c(Nc3ccc(OCc4ncccc4C)c(C)c3)c2cc1NC(=O)CCCN(C)C [Example 21] |  | < 100 nM | 100 to 1000 nM |
| CCOc1cc2ncc(C#N)c(Nc3ccc(OCc4ncccc4C)c(Br)c3)c2cc1NC(=O)CCCN(C)C [Example 24] | < 100 nM | < 100 nM |  |
| CCOc1cc2ncc(C#N)c(Nc3ccc(OCc4ccc(C(F)(F)F)cn4)c(Cl)c3)c2cc1NC(=O)CCCN(C)C [Example 53] |  | 100 to 1000 nM |  |
| CCOc1cc2ncc(C#N)c(Nc3ccc(OCc4ccccn4)c(Cl)c3)c2cc1NC(=O)CCCN1CCCC1 [Example 95, N-(4-(3-chloro-4-(pyridin-2-ylmethoxy)phenylamino)-3-cyano-7-ethoxyquinolin-6-yl)-4-(pyrrolidin-1-yl)butanamide] |  | < 100 nM | 100 to 1000 nM |
| CCOc1cc2ncc(C#N)c(Nc3ccc(OCc4cc(C(F)(F)F)ccn4)c(Cl)c3)c2cc1NC(=O)CCCN(C)C [Example 55] |  | 100 to 1000 nM |  |
| CCOc1cc2ncc(C#N)c(Nc3ccc(OCc4ccncc4)c(Cl)c3)c2cc1NC(=O)CCCN(C)C [Example 50] |  | 1000 to 10000 nM |  |

| SMILES | IC50 [1, 3] | IC50 [2] | IC50 [1] |
| --- | --- | --- | --- |
| CCOc1cc2ncc(C#N)c(Nc3ccc(OCc4cc(C#N)ccn4)c(Cl)c3)c2cc1NC(=O)CCCN(C)C [Example 36] |  | 100 to 1000 nM | 100 to 1000 nM |
| CCOc1cc2ncc(C#N)c(Nc3ccc(OCc4cc(OC)ccn4)c(Cl)c3)c2cc1NC(=O)CCCN(C)C [Example 37] |  | < 100 nM | 100 to 1000 nM |
| CCOc1cc2ncc(C#N)c(Nc3ccc(OCc4ncc(C)o4)c(Cl)c3)c2cc1NC(=O)CCCN(C)C [Example 39] |  | < 100 nM | 100 to 1000 nM |
| CCOc1cc2ncc(C#N)c(Nc3ccc(OCc4cccc(C(F)(F)F)n4)c(Cl)c3)c2cc1NC(=O)CCCN(C)C [Example 54] |  | 100 to 1000 nM |  |
| CCOc1cc2ncc(C#N)c(Nc3ccc(OCc4ccccn4)c(C)c3)c2cc1NC(=O)CCCN(C)C [Example 48] |  | 100 to 1000 nM |  |
| CCOc1cc2ncc(C#N)c(Nc3ccc(OCc4cccnn4)c(Cl)c3)c2cc1NC(=O)CCCN(C)C [Example 68] |  | 100 to 1000 nM |  |
| CCOc1cc2ncc(C#N)c(Nc3ccc(OCc4cnc5cccnc5c4)c(Cl)c3)c2cc1NC(=O)CCCN(C)C [Example 63] |  | 100 to 1000 nM |  |
| CCOc1cc2ncc(C#N)c(Nc3ccc(OCc4ccc(C(=O)OC)cn4)c(Cl)c3)c2cc1NC(=O)CCCN(C)C [Example 58] |  | 100 to 1000 nM |  |
| CCOc1cc2ncc(C#N)c(Nc3ccc(OCc4ccccn4)cc3)c2cc1NC(=O)CCCN(C)C [Example 47] |  | 100 to 1000 nM |  |
| CCOc1cc2ncc(C#N)c(Nc3ccc(OCCCn4cncn4)c(Cl)c3)c2cc1NC(=O)CCCN(C)C [Example 61] |  | 1000 to 10000 nM |  |
| CCOc1ccc(COc2ccc(Nc3c(C#N)cnc4cc(OCC)c(NC(=O)CCCN(C)C)cc34)cc2Cl)nc1 [Example 57] |  | 100 to 1000 nM |  |
| CCOc1cc2ncc(C#N)c(Nc3ccc(OCc4ccc5c(n4)OCCC5)c(Cl)c3)c2cc1NC(=O)CCCN(C)C [Example 59] |  | 1000 to 10000 nM |  |
| CCOc1cc2ncc(C#N)c(Nc3ccc(OCc4cccnc4)cc3)c2cc1NC(=O)CCCN(C)C [Example 51] |  | 1000 to 10000 nM |  |
| CCOc1cc2ncc(C#N)c(Nc3ccc(OCCc4c(C)noc4C)c(Cl)c3)c2cc1NC(=O)CCCN(C)C [Example 66] |  | 100 to 1000 nM |  |
| CCOc1cc2ncc(C#N)c(Nc3ccc(OCc4ccc(OC)cn4)c(Cl)c3)c2cc1NC(=O)CCCN(C)C [Example 56] |  | 100 to 1000 nM |  |
| CCOc1cc2ncc(C#N)c(Nc3ccc(OCCn4ccc(C)n4)c(Cl)c3)c2cc1NC(=O)CCCN(C)C [Example 64] |  | 100 to 1000 nM |  |
| CCOc1cc2ncc(C#N)c(Nc3ccc(OCc4cnc(C)cn4)c(Cl)c3)c2cc1NC(=O)CCCN(C)C [Example 60] |  | 100 to 1000 nM |  |
